Biological target: T1, recombinant human dihydrofolate reductase (hDHFR) (Homo sapiens, UniProt P00374)
T1 construct: gene DHFR; commercial recombinant enzyme (R&D, Bio-Techne)
T1 sequence (P00374 1-187): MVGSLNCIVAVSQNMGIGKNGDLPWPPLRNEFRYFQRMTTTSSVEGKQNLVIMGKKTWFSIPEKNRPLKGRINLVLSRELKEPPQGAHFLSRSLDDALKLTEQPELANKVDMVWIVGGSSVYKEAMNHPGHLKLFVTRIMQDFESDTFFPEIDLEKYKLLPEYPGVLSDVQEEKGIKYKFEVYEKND
Experiment: NADPH oxidation, absorbance at […] nm
Assay type: biochemical

Q: How did the IC50 turn out when `CN(Cc1cnc2nc(N)nc(N)c2n1)c1ccc(C(=O)NCCCC(=O)O)cc1` [compound 4, 4] was run?
A: The IC50 was 10 nM.

Q: Which IC50 does the source give for `CN(Cc1cnc2nc(N)nc(N)c2n1)c1ccc(C(=O)NCCCCCCCC(=O)O)cc1` [compound 6, 6] here?
A: Its IC50 is 1010 nM.

Q: How did the IC50 turn out when `CN(Cc1cnc2nc(N)nc(N)c2n1)c1ccc(C(=O)NCCCCCC(=O)O)cc1` [compound 5, 5] was run?
A: Its IC50 is 1210 nM.

Q: `CN(Cc1cnc2nc(N)nc(N)c2n1)c1ccc(C(=O)NCCS(=O)(=O)O)cc1` [compound 7, 7] was tested. Which IC50 did it give?
A: Its IC50 is 3030 nM.
